Assay results: US11254706B2, “Peptide and its derivatives capable of inhibiting replication of hepatitis V virus in human adipose-derived stem cells and hepatocytes” (Inno Bio-Drug Development Limited, priority 2015, dated 2022)
Ends that are not written are not given here.

Columns and labels:
[1] = tested on: serum-borne HCV (genotype 1b); assay: Replication of serum-borne HCV in hADSC (qRT-PCR of 5′-UTR); assay type: cell-based; conditions: p5 hADSC, peptide 1, 10 and 100 μg/ml (control peptide 100 μg/ml) added 1 h before HCV(+) serum genotype 1b, day 21 post-infection; for viral (5′-UTR) copy numbers in the supernatant: FIG. 1A; for viral (5′-UTR) copy numbers in cell lysates: FIG. 1B
From the text: FIG. 1. […] Data are expressed as mean±SD from 3 experiments. […] Data are expressed as mean±SD from 3 experiments.
We next examined the effect of a peptide composed of 14 amino acids DEAQETAVSSHEQD (SEQ ID NO: 1) (designated as DEA), and its derivatives QETAVSSHEQD (SEQ ID NO: 3) (designated as QET) and DEAQETAVSSHEQ (SEQ ID NO: 2) (designated DEA-Q) as prepared in Example 1, in the replication of serum-borne HCV in hADSC and in human primary hepatocytes. […] (SEQ ID NO: 4)^10. […] In contrast, pretreatment with control peptide had no effects.

HCVser (genotype 1b) = conditions: for HCV copy numbers: at some concentrations (such as 10 and 100 μg/ml); for HCVser replication in human hepatocytes (cellular 5′-UTR RNA): pretreatment 1 h before HCVser-1b, five days post-infection, FIG. 1C
Protocol: FIG. 1. […] (A and B) Concentrations of 1, 10 and 100 μg/ml of DEA, DEA-Q and QET peptides were added into the culture of p5 hADSC for 1 h before exposure to HCV(+) serum (genotype 1b). HLA-A11 restricted, Epstein-Barr virus-specific peptide epitope […] was used as a control (irrelevant) peptide. On day 21 post-infection, the 5′-UTR copy numbers in the supernatant (A) and cell lysates (B) were quantified by qRT-PCR. Data are expressed as mean±SD from 3 experiments. (C) Concentrations of 1, 10 and 100 μg/ml of DEA, DEA-Q and QET peptides were added into the culture of primary human hepatocytes 1 h before exposure to HCVser (genotype 1b). Five days post-infection, the cellular RNAs were extracted for RT-PCR of 5′-UTR. Data are expressed as mean±SD from 3 experiments.
Human hepatocytes were isolated from the non-tumoural part away from the lesion, as described^11. Hepatocytes were left for 3 days to allow attachment onto plastic wells, and subsequently exposed to the HCVser-1b with or without pretreatment with control peptide, DEA, DEA-Q or QET peptide. Five days post-infection, the cellular RNAs were extracted for RT-PCR of 5′-UTR.

Substance | viral (5′-UTR) copy numbers in the supernatant [1] | viral (5′-UTR) copy numbers in cell lysates [1] | HCV copy numbers (HCVser (genotype 1b)) | HCVser replication in human hepatocytes (cellular 5′-UTR RNA) (HCVser (genotype 1b))
CSSCSSCPLSK (HLA-A11 restricted, Epstein-Barr virus-specific peptide epitope) [control peptide, reference compound] | no effects | no effects |  | 
DEAQETAVSSHEQD-OH [DEA, DEAQETAVSSHEQD] | significantly reduced | significantly reduced | under detection limit | significantly inhibited
DEAQETAVSSHEQ-OH [DEA-Q, DEAQETAVSSHEQ] | significantly reduced | significantly reduced | under detection limit | significantly inhibited
QETAVSSHEQD-OH [QET, QETAVSSHEQD] | significantly reduced | significantly reduced | under detection limit | significantly inhibited
